Laboratory results published in PubChem BioAssay (NCI).
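Five concentrations, 48 hours, 96-well plates. TGI: total growth inhibition.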

Columns and labels:
Test in all cases: growth of human tumour cells (NCI), 48 h
CCRF-CEM leukemia = system: CCRF-CEM leukemia
SNB-75 CNS = system: SNB-75 CNS
T-47D breast = system: T-47D breast
U251 CNS = system: U251 CNS
MDA-MB-231 breast = system: MDA-MB-231 breast
UO-31 renal = system: UO-31 renal
MDA-MB-435 = system: MDA-MB-435
SNB-19 CNS = system: SNB-19 CNS
TK-10 renal = system: TK-10 renal
SK-MEL-2 melanoma = system: SK-MEL-2 melanoma
UACC-62 melanoma = system: UACC-62 melanoma
K-562 leukemia = system: K-562 leukemia
LOX IMVI melanoma = system: LOX IMVI melanoma
RPMI-8226 leukemia = system: RPMI-8226 leukemia
CAKI-1 renal = system: CAKI-1 renal
RXF 393 renal = system: RXF 393 renal
PC-3 prostate = system: PC-3 prostate
HCT-116 colon = system: HCT-116 colon
SK-OV-3 ovarian = system: SK-OV-3 ovarian
NCI-H23 lung = system: NCI-H23 lung
ACHN renal = system: ACHN renal
HCT-15 colon = system: HCT-15 colon
SR leukemia = system: SR leukemia
786-0 renal = system: 786-0 renal
SN12C renal = system: SN12C renal
SF-539 CNS = system: SF-539 CNS
HT29 colon = system: HT29 colon
HCC-2998 colon = system: HCC-2998 colon
MCF7 breast = system: MCF7 breast
IGROV1 ovarian = system: IGROV1 ovarian
UACC-257 melanoma = system: UACC-257 melanoma
OVCAR-8 ovarian = system: OVCAR-8 ovarian
MOLT-4 leukemia = system: MOLT-4 leukemia
KM12 colon = system: KM12 colon
OVCAR-4 ovarian = system: OVCAR-4 ovarian
NCI-H226 lung = system: NCI-H226 lung
SK-MEL-5 melanoma = system: SK-MEL-5 melanoma
OVCAR-5 ovarian = system: OVCAR-5 ovarian
HOP-92 NSCLC = system: HOP-92 NSCLC
BT-549 breast = system: BT-549 breast
SW-620 colon = system: SW-620 colon
A549 NSCLC = system: A549 NSCLC
NCI-H522 lung = system: NCI-H522 lung
HS 578T breast = system: HS 578T breast
HOP-62 NSCLC = system: HOP-62 NSCLC
COLO 205 colon = system: COLO 205 colon
MDA-N = system: MDA-N
MALME-3M melanoma = system: MALME-3M melanoma
A498 renal = system: A498 renal
EKVX NSCLC = system: EKVX NSCLC
HL-60(TB) leukemia = system: HL-60(TB) leukemia
M14 melanoma = system: M14 melanoma
SF-295 CNS = system: SF-295 CNS
DU-145 prostate = system: DU-145 prostate
SF-268 CNS = system: SF-268 CNS
NCI/ADR-RES ovarian = system: NCI/ADR-RES ovarian
OVCAR-3 ovarian = system: OVCAR-3 ovarian
SK-MEL-28 melanoma = system: SK-MEL-28 melanoma
NCI-H460 lung = system: NCI-H460 lung

Molecule `C=C(C(=O)OC)N1C(=O)CC(C)C1=O` (stereo not drawn) has a TGI (CCRF-CEM leukemia) of 4.62 µM, a TGI (SNB-75 CNS) of 36.2 µM and a TGI (T-47D breast) of 33.1 µM. It also gave a TGI (U251 CNS) of 35 µM, a TGI (MDA-MB-231 breast) of 34.1 µM and a TGI (UO-31 renal) of 26.1 µM. The TGI (MDA-MB-435) was 37.2 µM, the TGI (SNB-19 CNS) was 58.8 µM and the TGI (TK-10 renal) was 17.7 µM. The TGI (SK-MEL-2 melanoma) was 33.9 µM, the TGI (UACC-62 melanoma) was 29.6 µM and the TGI (K-562 leukemia) was 12.8 µM. The TGI (LOX IMVI melanoma) was 19.1 µM, the TGI (RPMI-8226 leukemia) was 12.7 µM and the TGI (CAKI-1 renal) was 4.38 µM. For the same molecule, the TGI (RXF 393 renal) was 26.1 µM, the TGI (PC-3 prostate) was 30.4 µM and the TGI (HCT-116 colon) was 19.5 µM. For the same molecule, the TGI (SK-OV-3 ovarian) was 98.9 µM, the TGI (NCI-H23 lung) was 33.5 µM and the TGI (ACHN renal) was 7.51 µM. For the same molecule, the TGI (HCT-15 colon) was 23.6 µM, the TGI (SR leukemia) was 6.9 µM and the TGI (786-0 renal) was 23.5 µM. It also gave a TGI (SN12C renal) of 31.1 µM, a TGI (SF-539 CNS) of 36 µM and a TGI (HT29 colon) of 25.2 µM. The TGI (HCC-2998 colon) was 31.4 µM, the TGI (MCF7 breast) was 30.5 µM and the TGI (IGROV1 ovarian) was 31.5 µM. For the same molecule, the TGI (UACC-257 melanoma) was 25.8 µM, the TGI (OVCAR-8 ovarian) was 43.1 µM and the TGI (MOLT-4 leukemia) was 10.7 µM. For the same molecule, the TGI (KM12 colon) was 43.8 µM, the TGI (OVCAR-4 ovarian) was 37.4 µM and the TGI (NCI-H226 lung) was 70.3 µM. For the same molecule, the TGI (SK-MEL-5 melanoma) was 32.7 µM, the TGI (OVCAR-5 ovarian) was 29.8 µM and the TGI (HOP-92 NSCLC) was 3.98 µM. For the same molecule, the TGI (BT-549 breast) was 30.9 µM, the TGI (SW-620 colon) was 25.5 µM and the TGI (A549 NSCLC) was 44.2 µM. It also gave a TGI (NCI-H522 lung) of 5.05 µM, a TGI (HS 578T breast) of 71.2 µM and a TGI (HOP-62 NSCLC) of 35.6 µM. For the same molecule, the TGI (COLO 205 colon) was 14.3 µM, the TGI (MDA-N) was 28.9 µM and the TGI (MALME-3M melanoma) was 5 µM. The TGI (A498 renal) was 36.8 µM, the TGI (EKVX NSCLC) was 29.9 µM and the TGI (HL-60(TB) leukemia) was 3.78 µM. The TGI (M14 melanoma) was 29.6 µM, the TGI (SF-295 CNS) was over 72 µM and the TGI (DU-145 prostate) was 29.8 µM. The TGI (SF-268 CNS) was 36.4 µM, the TGI (NCI/ADR-RES ovarian) was 36 µM and the TGI (OVCAR-3 ovarian) was 22.4 µM. The TGI (SK-MEL-28 melanoma) was 23.1 µM and the TGI (NCI-H460 lung) was 35.1 µM.
`OC(COc1cccc2ccccc12)CN1CCOCC1` (stereo not drawn) was tested, and the TGI (CCRF-CEM leukemia) was over 100 µM, the TGI (SNB-75 CNS) was over 100 µM and the TGI (T-47D breast) was over 100 µM. The TGI (U251 CNS) was over 100 µM, the TGI (MDA-MB-231 breast) was over 100 µM and the TGI (UO-31 renal) was over 100 µM. For the same molecule, the TGI (MDA-MB-435) was over 100 µM, the TGI (SNB-19 CNS) was over 100 µM and the TGI (TK-10 renal) was over 100 µM. For the same molecule, the TGI (SK-MEL-2 melanoma) was over 100 µM, the TGI (UACC-62 melanoma) was over 100 µM and the TGI (K-562 leukemia) was over 100 µM. For the same molecule, the TGI (LOX IMVI melanoma) was over 100 µM, the TGI (RPMI-8226 leukemia) was over 100 µM and the TGI (CAKI-1 renal) was over 100 µM. It also gave a TGI (RXF 393 renal) of over 100 µM, a TGI (PC-3 prostate) of over 100 µM and a TGI (HCT-116 colon) of over 100 µM. The TGI (SK-OV-3 ovarian) was over 100 µM, the TGI (NCI-H23 lung) was over 100 µM and the TGI (ACHN renal) was over 100 µM. For the same molecule, the TGI (HCT-15 colon) was over 100 µM, the TGI (SR leukemia) was over 100 µM and the TGI (786-0 renal) was over 100 µM. For the same molecule, the TGI (SN12C renal) was over 100 µM, the TGI (SF-539 CNS) was over 100 µM and the TGI (HT29 colon) was over 100 µM. The TGI (HCC-2998 colon) was over 100 µM, the TGI (MCF7 breast) was over 100 µM and the TGI (IGROV1 ovarian) was over 100 µM. The TGI (UACC-257 melanoma) was over 100 µM, the TGI (OVCAR-8 ovarian) was over 100 µM and the TGI (MOLT-4 leukemia) was over 100 µM. For the same molecule, the TGI (KM12 colon) was over 100 µM, the TGI (OVCAR-4 ovarian) was over 100 µM and the TGI (NCI-H226 lung) was over 100 µM. The TGI (SK-MEL-5 melanoma) was over 100 µM, the TGI (OVCAR-5 ovarian) was over 100 µM and the TGI (HOP-92 NSCLC) was 98.9 µM. It also gave a TGI (BT-549 breast) of over 100 µM, a TGI (SW-620 colon) of over 100 µM and a TGI (A549 NSCLC) of over 100 µM. It also gave a TGI (NCI-H522 lung) of over 100 µM, a TGI (HS 578T breast) of over 100 µM and a TGI (HOP-62 NSCLC) of over 100 µM. The TGI (COLO 205 colon) was over 100 µM, the TGI (MDA-N) was over 100 µM and the TGI (MALME-3M melanoma) was over 100 µM. It also gave a TGI (A498 renal) of over 100 µM, a TGI (EKVX NSCLC) of over 100 µM and a TGI (HL-60(TB) leukemia) of over 100 µM. The TGI (M14 melanoma) was over 100 µM, the TGI (SF-295 CNS) was over 100 µM and the TGI (DU-145 prostate) was over 100 µM. The TGI (SF-268 CNS) was over 100 µM, the TGI (NCI/ADR-RES ovarian) was over 100 µM and the TGI (OVCAR-3 ovarian) was over 100 µM. It also gave a TGI (SK-MEL-28 melanoma) of over 100 µM and a TGI (NCI-H460 lung) of over 100 µM.
